# In US11000505B2 (priority 2010, dated 2021):
# “And” between values parts separate entries of the source, which are not always exact repeats. Identical values can stand only once.
# What was measured:
# cGMP = cGMP in CSF by ELISA (Example 1); format: in vivo, newborn pigs
# pial artery [1] = format: in vivo, newborn pigs
# pial artery [2] = format: in vivo, piglets
# ERK/MAPK = test: CSF pERK/ERK after pretreatment by ELISA (Example 3); format: in vivo, piglets; details: 30 minutes after pretreatment
# [3] = system: neonatal mouse hypoxia model; test: Neonatal mouse hypoxia model: mortality, development, neurobehavior (Example 5); format: in vivo, C57BL/6J mice
# Excerpt: The protocol was approved by the Institutional Animal Care and Use Committee (IACUC) of the University of Pennsylvania and carried out in accordance with National Institutes of Health guidelines for the use of animals. C57BL/6J mice were purchased from The Jackson Laboratory (Bar Harbor, Me.) and inbreed pups were used for subsequent experiments. Pups were housed under a 12-hour light/dark cycle after birth with free access to food and water throughout the study. Pups from different litters were divided into 3 groups randomly. Pups in the control group (n=11) received i.p. injection of 17% dimethyl sulfoxide (DMSO) without hypoxia insult; the hypoxia group (n=46) received i.p. injection of 17% DMSO and hypoxia insult; SA group (n=26) received i.p. injection of 0.5 mg/kg SA in 17% DMSO and hypoxia insult. Pups of low weight (<1.2 g) were excluded from the study.
# The hypoxic insult was induced on postnatal day 1. After i.p. injections, pups were put into a glass chamber in a water bath where the temperature was maintained at 37° C. The chamber was tightly closed and filled with 8% oxygen with balanced nitrogen. Following 120 minutes of hypoxic gas exposure, the chamber was opened and the pups were exposed to the air. Chest compressions and limb stretches were performed for up to 20 minutes to regain spontaneous breathing. The pups that successfully regained spontaneous breathing were then returned to their mothers after recovery for 30 minutes.
# The neonate mouse will be considered as non-survival if no spontaneous breathing can be restored for 20 min resuscitation immediately after anoxic insult. The mortality rate will be calculated as: […]=(number of mice in a group-number of non-survival)/number of mice in a group.
# From postnatal day 2 to postnatal day 21, the pups were weighed and motor behavior observation was performed every day. Pups were observed individually in a plastic testing box. Each of the following behaviors was recorded for 3 minutes: crawling, walking, running, head point and sniffing, sitting, rearing and eye opening. After the observation, placing reflex, cliff aversion, negative geotaxis, righting response and forelimb grasping testing were performed. The first appearance of the behavior or reflex continued for two consecutive days was recorded.
# The open field test was performed to gauge locomotor activity on postnatal day 21 at which the mouse was considered juvenile. Mice were individually placed in a 41 cm (L)×41 cm (W)×30 cm (H) plastic box. The “central area” was defined as a 20.5 cm×20.5 cm square in the center of the box. The rest of the area was defined as the “peripheral area” (see FIG. 25A). The time each mouse spent on exploring the central and periphery parts and the number of rearing behaviors in each respective area were recorded for the first 5 minutes and 30 minutes.
# At the age of 10-11 weeks, all mice were tested in several behavioral tasks in the order of: zero mazes, barnes maze and fear conditioning. These tasks were performed to examine the basal anxiety level, spontaneous locomotor activity, motor learning, spatial learning and associative memory of the mice. The mice were given 5 days for rest between each behavioral test.
# “Time in open” measures mice anxiety due to their tendency to avoid open spaces. The anxiety was measured by recording the time spent in the open vs. enclosed space. Increased anxiety correlates to decreased time in the open. Open/Closed transitions measure overall activity. Increased transitions equate to greater activity.
# Measures the ability to learn with visual cues. Time to Target measures the time taken to find the target hole in an arena with 19 other holes and several visual cues. The Barnes Maze is easier to set-up and probably less stressful and a valid alternative to the Water Maze to study spatial memory. […]
# [4] = system: middle cerebral artery occlusion (MCAO); details: mouse, in vivo
# pial artery [5] = details: pig, in vivo
# pial artery [6] = details: 10%-16% changes compared to the baseline
# [7] = Solubility in other solvents; details: thermodynamic from solid
# [8] = Solubility in cyclodextrin solutions (HPLC)
# [9] = 10 μg/kg i.v. co-administrated with nor-BIN 1 μM topical
# [10] = 10 μg/kg i.v. immediately or 30 min after HI, 60 min after HI
# [11] = SB203580 10 μM topical 30 min before salvinorin A
# [12] = SP600125 1 μM topical 30 min before salvinorin A
# [13] = U0126 1 mg/kg i.v. 30 min before salvinorin A
# [14] = pretreatment 10 μg/kg i.v. 30 min before H/I
compound,measurement,setting,value
COC(=O)[C@@H]1C[C@H](OC(C)=O)C(=O)[C@H]2[C@@]1(C)CC[C@H]1C(=O)O[C@H](c3ccoc3)C[C@]21C [Salvinorin A],cGMP in CSF,cGMP; 10 min after administration,elevated cGMP in CSF
same,cGMP in CSF in presence of L-NNA,cGMP; L-NNA pretreatment,L-NNA blocked the elevation of the cGMP
same,cGMP in CSF in presence of norbinaltorphimine,"cGMP; norbinaltorphimine pretreatment, 10 nM and 1 μM",Norbinaltorphimine blocked the elevation of cGMP
same,pial artery dilation response to hypercapnia after HI with nor-BIN,pial artery [1]; [9],abolished completely
same,pial artery dilation response to hypotension after HI with nor-BIN,pial artery [1]; [9],abolished
same,pial artery dilation response to hypercapnia after HI,pial artery [1]; [10],preserved the dilation responses of pial artery to hypercapnia
same,pial artery dilation response to hypotension after HI,pial artery [1]; [10],preserved the dilation responses of pial artery to hypotension
same,preserved response to hypercapnia with SB203580,pial artery [2]; [11],No significant change in the preservative effects
same,preserved response to hypotension with SB203580,pial artery [2]; [11],no significantly changes
same,preserved response to hypercapnia with SP600125,pial artery [2]; [12],No significant change in the preservative effects
same,preserved response to hypotension with SP600125,pial artery [2]; [12],no significantly changes
same,preserved response to hypercapnia with U0126,pial artery [2]; [13],abolished by U0126
same,preserved response to hypotension with U0126,pial artery [2]; [13],abolished by U0126
same,pial artery dilation response to hypercapnia after hypoxia/ischemia,pial artery [2]; [14],preserved the dilation response of pial artery to hypercapnia
same,pial artery dilation response to hypotension after hypoxia/ischemia,pial artery [2]; [14],preserved the dilation response of pial artery to hypotension
same,ratio of pERK/ERK in CSF,ERK/MAPK,increased significantly
same,ratio of pERK/ERK in CSF with U0126,ERK/MAPK; U0126 30 minutes before salvinorin,unchanged
same,mortality rate,"[3]; 0.5 mg/kg i.p. before 120 min hypoxia (8% oxygen), postnatal day 1, hypoxia group 70%",38.5%
same,"delayed appearance of forelimb grasping, cliff aversion, righting response and eye opening",[3]; 0.5 mg/kg i.p. before hypoxia,prevented these delays
same,pups survived after HI injury,[3]; 0.5 mg/kg i.p. before hypoxia,16 out of 26
same,body weight difference among groups,"[3]; P7, P14 and P21",no significant difference was observed among groups
same,"time in the central area, open field testing",[3]; P21,not statistically significant
same,rearing test,"[3]; P21, first 5 minutes and 30 minutes",impairment was not observed
same,Barnes maze spatial memory,[3]; age 10-11 weeks,no significant difference among groups
same,"elevated zero maze: time in open arm and open/closed transitions, SA vs hypoxia",[3]; age 10-11 weeks,no significant differences
same,fear conditioning,[3]; age 10-11 weeks,no significant differences were observed among groups
same,first appearance of rearing without support,"[3]; hypoxia 19.86±0.29, control 18.18±0.44, mean±SEM, listed as SA",18.69 ± 0.38 days and 18.69 ± 0.3843 days
same,"other developmental parameters (crawling, walking, running, head point and sniffing, sitting, rearing with support, negative geotaxis, placing reflex)","[3]; mouse, in vivo",no statistical significance
same,body weight vs hypoxia group,[3]; postnatal day 2 and day 3,increased body weight
same,blood brain barrier disruption and vascular leakage (Evans blue extravasation),[4],reduced the disruption and leakage
same,infarct size (TTC stains),[4],dose-dependent reduction
same,"motor function, grip strength score",[4],dose-dependent improvements in motor function
same,neurobehavior,[4],dose-dependent improvements
same,overall motor function,[4],improves overall motor function
same,protective effect on leakage with norbinaltorphimine,[4],inhibited the protective effect of salvinorin A
same,blood pressure changes during administration,pial artery [5],No significant blood pressure changes
same,dilation of constricted pial arteries,pial artery [5],dilated pial arteries under elevated tone conditions
same,dilation of pial artery,pial artery [5],"dose dependently (10 nM, 1 μM) dilated the pial artery"
same,dilation response in presence of L-NNA,pial artery [5],abolished by L-NNA
same,dilation response in presence of glibenclamide,pial artery [5],blocked the dilation effects of salvinorin A
same,dilation response in presence of naloxone,pial artery [5],blocked the dilation effects
same,dilation response in presence of norbinaltorphimine,pial artery [5],blocked the dilation effects
same,dilation response in presence of sulpiride,pial artery [5],had no effect on the dilation response
same,dilation with repeated administration,pial artery [5],sustained dilation effects was observed
same,concentration required to effectively dilate pial arteries,pial artery [6],10 nM
same,solubility,"[7]; 1,2-propanediol, organic solvent or mixture",59 µg/mL
same,solubility,"[7]; 1.25% Polysorbate 80 and […] Solutol HS15, aqueous with cosolvent or surfactant or cyclodextrin",25 µg/mL
same,solubility,"[7]; 2-propanol, organic solvent or mixture",22 µg/mL
same,solubility,"[7]; 5% Solutol HS15, aqueous with cosolvent or surfactant or cyclodextrin",26 µg/mL
same,solubility,"[7]; 5% Vitamin E TPGS, aqueous with cosolvent or surfactant or cyclodextrin",45 µg/mL
same,solubility,"[7]; 10% Tetraglycol, aqueous with cosolvent or surfactant or cyclodextrin",< 2 µg/mL
same,solubility,"[7]; 10% bile salts, aqueous with cosolvent or surfactant or cyclodextrin",< 2 µg/mL
same,solubility,"[7]; DMSO, organic solvent or mixture",> 1000 µg/mL
same,solubility,"[7]; N,N-dimethylacetamide, organic solvent or mixture",> 5000 µg/mL
same,solubility,"[7]; N-methylpyrolidinone, organic solvent or mixture",> 10000 µg/mL
same,solubility,"[7]; […] Polysorbate 80, aqueous with cosolvent or surfactant or cyclodextrin",< 2 µg/mL
same,solubility,"[7]; ethanol, organic solvent or mixture",> 1000 µg/mL
same,solubility,"[7]; glyceryl monocaprylate, oil or lipid",< 2 µg/mL
same,solubility,[7]; water,< 2 µg/mL
same,solubility,"[8]; 20% 2-hydroxypropyl-β-cyclodextrin (HPBCD) in water, aqueous with cosolvent or surfactant or cyclodextrin, thermodynamic from solid, Concentration (solubility), 20% HPBCD, mean ± SD",122.5 ± 0.6 µg/mL
same,solubility,"[8]; 20% 2-hydroxypropyl-β-cyclodextrin (HPBCD) in water, aqueous with cosolvent or surfactant or cyclodextrin, thermodynamic from solid, maximum concentration (solubility), HPBCD",> 100 µg/mL
same,solubility,"[8]; 20% 2-hydroxypropyl-β-cyclodextrin (HPBCD) in water, aqueous with cosolvent or surfactant or cyclodextrin, thermodynamic from solid, solubility, 20% HPBCD",122.5 ± 0.6 µg/mL
same,solubility,"[8]; 20% 2-hydroxypropyl-γ-cyclodextrin (HPGCD) in water, aqueous with cosolvent or surfactant or cyclodextrin, thermodynamic from solid, Concentration (solubility), 20% HPGCD, mean ± SD",52.6 ± 0.9 µg/mL
same,solubility,"[8]; 20% 2-hydroxypropyl-γ-cyclodextrin (HPGCD) in water, aqueous with cosolvent or surfactant or cyclodextrin, thermodynamic from solid, solubility, 20% HPGCD",52.6 ± 0.9 µg/mL
same,solubility,"[8]; 20% α-cyclodextrin sulfated sodium salt in water, aqueous with cosolvent or surfactant or cyclodextrin, thermodynamic from solid, Concentration (solubility), 20% α-Cyclodextrin sulfated sodium salt, mean ± SD",1 ± 0.1 µg/mL
same,solubility,"[8]; 20% β-cyclodextrin sulfated sodium salt in water, aqueous with cosolvent or surfactant or cyclodextrin, thermodynamic from solid, Concentration (solubility), 20% β-Cyclodextrin sulfated sodium salt, mean ± SD",1.5 ± 0.1 µg/mL
same,solubility,[8]; water and α- or β-cyclodextrin sulfated sodium salt,only minimally soluble
same,solubility,"[8]; water, thermodynamic from solid, Concentration (solubility), 100% water, mean ± SD",1 ± 0.1 µg/mL
